Results on 8 compounds are retold here after PMC10743905, “Design, Synthesis, and In Vitro and In Vivo Bioactivity Studies of Hydrazide–Hydrazones of 2,4-Dihydroxybenzoic Acid” (International Journal of Molecular Sciences, 2023).

For experiment [1], the system named is Candida albicans ATCC 2091. Briefly: Broth microdilution MIC/MFC. Particulars: for MIC: ATCC2091, read-out: MIC; for MFC: ATCC2091, read-out: MFC. The format is cell-based. In a few lines: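 Strains were subcultured on nutrient or Sabouraud agar, suspended to 0.5 McFarland in saline, then added to wells holding two-fold compound dilutions. Final concentrations ranged 1000 to 0.488 µg/ml in Mueller-Hinton broth or RPMI 1640 with MOPS.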
(In general: Broth dilution looks for growth in wells or tubes with falling amounts of substance.)

In the next experiment the test system is H1563. As to the kind of experiment: MTT antiproliferative assay. The format is cell-based, human. The note with it: for IC50: MTT, 24 h incubation, lung adenocarcinoma; for Selectivity Index: ratio IC50 HEK-293 / IC50 H1563. On the procedure: (§1) The in vitro studies were performed on the reference line HEK-293 (human embryonic kidney cells, ATCC® CRL-1573™) and […] human cancer cell lines: 769-P (adenocarcinoma, renal cells, ATCC® CRL-1933™) and HepG2 (carcinoma, hepatocellular, ATCC® HB-8065™), H1563 (adenocarcinoma, non-smallcell lung cancer, ATCC® CRL-5875™), LN-229 (glioblastoma, ATCC® CRL-2611™). Cells from the 769-P and H1563 cell lines were cultured in RPMI-1640 growth medium (PAN Biotech GmbH, Aidenbach, Bayern, Germany), cells from the HEK-293 and HepG2 cell lines were cultured in EMEM growth medium (PAN Biotech GmbH, Aidenbach, Bayern, Germany), and cells from the LN-229 cell line were cultured in DMEM growth medium (PAN Biotech GmbH, Aidenbach, Bayern, Germany) in sterile 75 cm^2 culture phalcones. Fetal bovine serum (PAN Biotech GmbH, Aidenbach, Bayern, Germany) at 10% of growth medium and antibiotics (Sigma-Aldrich, Poland) (2.5 µg/mL amphotericin B, 100 µg/mL penicillin, and 100 µg/mL streptomycin) were added to all media. Cells were cultured at 37 °C in an incubator with 5% CO2 flow until a cell layer was formed. Following this, the medium was removed, and the cells were washed with 0.25% trypsin solution with 2.21 mM EDTA (Corning Incorporated, Corning, NY, USA) in order to completely remove fetal bovine serum containing trypsin inhibitor. Finally, 6 mL of complete growth medium was added, and the cells were aspirated by gentle pipetting.
(§2) The determination of inhibitory concentration (IC50) in the HEK-293, 769-P, HepG2, H1563, and LN-229 cell cultures for selected hydrazide–hydrazones was performed using the MTT assay procedure. This test was performed according to the MTT Assay ECVAM n°17 protocol manual prepared by the European Centre for the Validation of Alternative Methods (ECVAM), an entity that aims to reduce in vivo testing in favor of in vitro and in silico methods. To 96-well sterile plates, 100 μL of cell suspensions, prepared in the appropriate medium at a concentration of 3 × 10^5 cells/mL, was added using a multichannel pipette. To achieve cell adhesion to the bottom of the plates, cells were incubated for 24 h at 37 °C with 5% CO2 flow and 90% humidity. To determine the growth-inhibitory concentration, the solutions of the tested substances (19–24) were prepared at concentrations ranging from 1 µM to 500 µM, added individually to the wells following the rule of 8 wells per concentration, and the plates were again incubated for 24 h at 37 °C and with 5% CO2 addition. We also prepared a background control (200 μL of the respective growth medium) and negative control (100 μL of cells in the appropriate growth medium + 100 μL of the growth medium), which provided information on the amount of formazan formed in the untreated cells. After a 24 h incubation period, the solutions were extracted from the cells; 190 μL of growth medium and 10 μL of 5 mg/mL MTT solution (Invitrogen, Waltham, MA, USA) were added each and incubated for 4 h. After this time, all medium was removed, 100 μL of DMSO (Corning Incorporated, Corning, NY, USA) was added to each well, and absorbance measurements were performed at 550 nm using a Power Weave xs spectrophotometric microplate reader (BioTek, Winooski, VT, USA). The decrease in absorbance is equivalent to the decrease in MTT formazan production, which is due to the decrease in mitochondrial dehydrogenase activity and indicates a cytotoxic effect from the tested substances. Cell viability is expressed as a percentage as the ratio of the absorbance of test substance-treated cells to the untreated cells. The experiments were repeated three times.
(§3) The significance level was taken as p < 0.05.
(Tetrazolium assays rely on reduction of a dye to a coloured formazan, in cell work by metabolically active cells.)

A further experiment concerns 769-P. As to the kind of experiment: MTT antiproliferative assay. The format is cell-based, human. Particulars: for IC50: Homo sapiens, 769-P, MTT, 24 h incubation, renal adenocarcinoma; for Selectivity Index: ratio IC50 HEK-293 / IC50 769-P. Here is the method:
as §1, §2, §3

The next experiment concerns LN-229. Briefly: MTT antiproliferative assay. It is filed as cell-based, human. The note with it: for IC50: Homo sapiens, LN-229, MTT, 24 h incubation, glioblastoma; for Selectivity Index: ratio IC50 HEK-293 / IC50 LN-229. Here is the method: as §1, §2, §3

Converted amounts (≈) assume the structure as drawn.

As usually defined, the MIC is the lowest concentration found to suppress growth. `CCCc1ccc(/C=N/NC(=O)c2ccc(O)cc2O)cc1` [Compound 13, 2,4-dihydroxy-N-[(4-propylphenyl)methylidene]benzohydrazide]: the MIC in experiment [1] is greater than 1000 µg/mL.

In general, MFC refers to the lowest tested concentration that kills the fungus rather than only halting it. Take `O=C(N/N=C/c1cc(I)cc(I)c1O)c1ccc(O)cc1O` [Compound 18, 2,4-dihydroxy-N-[(2-hydroxy-3,5-diiodophenyl)methylidene]benzohydrazide]: in experiment [1], the MFC/MIC was greater than 2, the MFC is greater than 1000 µg/mL and the MIC is 500 µg/mL (≈ 0.954 mM).

By IC50 is commonly meant the concentration at which inhibition is half-maximal. Higher therefore signals a need for much substance. Turning to `O=C(N/N=C/c1ccccc1[N+](=O)[O-])c1ccc(O)cc1O` [Compound 19, 2,4-dihydroxy-N-[(2-nitrophenyl)methylidene]benzohydrazide], half-maximal inhibition in the experiment with H1563 (Homo sapiens, NCI-H1563, 24 h) (IC50) was put at 65.7 µM. Moreover, in the experiment on H1563, the half-inhibitory concentration (IC50) stood at 65.6 µM and the “Selectivity Index” value is 2.27 × 10^3. Besides, in the experiment with 769-P, it took 45.4 µM to reach half-maximal inhibition (IC50) and the “Selectivity Index” value is reported as 3.29 × 10^3. In addition, in the experiment with LN-229, the IC50 came to 130 µM and the “Selectivity Index” value was 1.14 × 10^3. In addition, in experiment [1], the MFC/MIC is listed as greater than 2, the MFC was greater than 1000 µg/mL and the MIC is 500 µg/mL (≈ 1.66 mM).

Consider `O=C(N/N=C/c1cccc([N+](=O)[O-])c1)c1ccc(O)cc1O` [Compound 20, 2,4-dihydroxy-N-[(3-nitrophenyl)methylidene]benzohydrazide], for which the IC50 with H1563 (Homo sapiens, NCI-H1563, 24 h) was 70.9 µM; with 769-P it was greater than 500 µM; in the experiment with LN-229, greater than 500 µM. Besides, the “Selectivity Index” value in the experiment with H1563 is 1.89 × 10^2. Moreover, the MIC in experiment [1] was greater than 1000 µg/mL.

For the compound `O=C(N/N=C/c1ccc([N+](=O)[O-])cc1)c1ccc(O)cc1O` [Compound 21, 2,4-dihydroxy-N-[(4-nitrophenyl)methylidene]benzohydrazide], in the experiment with H1563 (Homo sapiens, NCI-H1563, 24 h), the IC50 was greater than 500 µM. Also, the IC50 in the experiment on 769-P is 12.4 µM. Moreover, in the experiment with LN-229, the IC50 was 0.77 µM. In experiment [1], the MFC/MIC was greater than 1, the MFC was greater than 1000 µg/mL and the minimum inhibitory concentration (MIC) stood at 1000 µg/mL (≈ 3.32 mM).

`O=C(N/N=C/c1ccccc1Cl)c1ccc(O)cc1O` [Compound 22, N-[(2-chlorophenyl)methylidene]-2,4-dihydroxybenzohydrazide] gave an IC50 with H1563 (Homo sapiens, NCI-H1563, 24 h) of 217 µM. Moreover, the “Selectivity Index” value in the experiment with H1563 is given as 1.45. Besides, in the experiment on 769-P, the IC50 worked out at 262 µM and the “Selectivity Index” value is recorded as 1.20. In addition, in the experiment on LN-229, 111 µM corresponded to half-maximal inhibition (IC50) and the “Selectivity Index” value is recorded as 2.85. In experiment [1], the MFC/MIC is listed as greater than 1, the MFC was greater than 1000 µg/mL and the MIC is 1000 µg/mL (≈ 3.44 mM).

`O=C(N/N=C/c1ccccc1Br)c1ccc(O)cc1O` [Compound 23, N-[(2-bromophenyl)methylidene]-2,4-dihydroxybenzohydrazide] returned an IC50 with H1563 (Homo sapiens, NCI-H1563, 24 h) of 101 µM. For the same compound, the “Selectivity Index” value in the experiment with H1563 was 9.08 × 10^2. The compound also gave an IC50 in the experiment on 769-P greater than 500 µM. In the experiment with LN-229, inhibition was half-maximal at 157 µM (IC50) and the “Selectivity Index” value is 5.85 × 10^2. In experiment [1], the MFC/MIC is given as greater than 1, the MFC is greater than 1000 µg/mL and the MIC is 1000 µg/mL (≈ 2.98 mM).

On to `O=C(N/N=C/c1ccccc1F)c1ccc(O)cc1O` [Compound 24, N-[(2-fluorophenyl)methylidene]-2,4-dihydroxybenzohydrazide], for which, in the experiment on H1563 (Homo sapiens, NCI-H1563, 24 h), the IC50 is 200 µM. Further, in the experiment on H1563, the “Selectivity Index” value is 1.94. Besides, the IC50 with 769-P is greater than 500 µM. Besides, in the experiment on LN-229, the IC50 is 199 µM and the “Selectivity Index” value worked out at 1.94. Besides, in experiment [1], the MFC/MIC was greater than 1, the minimal fungicidal concentration (MFC) is greater than 1000 µg/mL and the MIC is 1000 µg/mL (≈ 3.65 mM).
